Reference: publication PMC10375536, “Discovery of High-Affinity Amyloid Ligands Using a Ligand-Based Virtual Screening Pipeline” (Journal of the American Chemical Society, 2023)
Like-named read-outs stand apart in the source and are kept apart here. One block for each compound: values may come before it.

Assays:
Aβ(1-42) [1] = conditions: cited from earlier work
Aβ(1-42) [2] = conditions: cited from earlier work; remark: listed apart in the source
Aβ(1–42) fibrils = molecular target: T1, Aβ(1–42) fibrils (Homo sapiens, UniProt P05067); experiment: Thioflavin T (ThT) fluorescence competition assay; format: binding; conditions: for ThT displacement in competition screen: Aβ(1–42) fibrils (250 nM); for ThT displacement in competition screen / Kd: ThT (1.0 μM), 1× PBS pH 7.4, 25 °C; for Kd: Aβ(1–42) fibrils (500 nM)
T1 construct: Monomeric Aβ(1-42) (1 mg: Rockland Immunochemicals, Limerick, PA, Lot #31541); purchased Rockland Immunochemicals, Limerick, PA Lot #31541 (a lot number; no catalogue number given)

[3] = against [3H]BF-227, ref 10.1177/1536012118796297
[4] = against [125I]BF-180, ref 10.1523/JNEUROSCI.4456-03.2004
[5] = against [125I]BF-180, ref 10.1385/JMN:24:2:247
[6] = against [125I]BF-180, ref 10.1523/JNEUROSCI.1738-05.2005
[7] = against [125I]IMSB, ref 10.1016/j.bmcl.2011.08.003
[8] = against [125I]IMSB, ref 10.1021/jm010045q
[9] = average of fits from at least three independent experiments, read-out: Kd/nM
[10] = read-out: –log(Kd/M) (converted)
[11] = direct binding, ref 10.1007/s00259-012-2261-2
[12] = direct binding, ref 10.1021/jm010045q

T1 sequence (P05067 672-713 limits assumed): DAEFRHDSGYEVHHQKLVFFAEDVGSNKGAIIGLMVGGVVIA

SMILES: COCCOCCOCCOC(=O)/C(C#N)=C/c1ccc2cc(N3CCCCC3)ccc2c1 [ANCA-11]
- Kd (Aβ(1-42) [1]; direct binding, ref 10.1021/cn200018v): 1400 nM

SMILES: CNc1ccc(/C=C/c2ccc(OCCOCCOCCF)nc2)cc1 [AV-45, Florbetapir]
- Ki (Aβ(1-42) [2]; [3]): 12 nM

SMILES: Cc1cc(/C=C/c2ccc(N(C)C)cc2)n2c1C=C1C=CC=[N+]1[B-]2(F)F [BAP-1]
- Kd (Aβ(1-42) [1]; direct binding, ref 10.1021/cn3000058): 44.1 nM

SMILES: CCN(CC)c1ccc(/C=C/c2nc3ccccc3o2)cc1 [BF-125]
- Ki (Aβ(1-42) [2]; [4]): 4.9 nM

SMILES: Nc1ccc(/C=C/c2nc3cc(F)ccc3o2)cc1 [BF-140]
- Ki (Aβ(1-42) [2]; [5]): 2.1 nM

SMILES: CNc1ccc(/C=C/c2nc3cc(F)ccc3o2)cc1 [BF-145]
- Ki (Aβ(1-42) [2]; [5]): 4.5 nM

SMILES: CNc1ccc(-c2ccc3ccccc3n2)cc1 [BF-158]
- Ki (Aβ(1-42) [2]; [6]): > 5000 nM

SMILES: CNc1ccc(/C=C/c2nc3ccc(OCCF)cc3o2)cc1 [BF-168]
- Ki (Aβ(1-42) [2]; [4]): 6.4 nM

SMILES: Nc1ccc(-c2ccc3ccccc3n2)cc1 [BF-170]
- Ki (Aβ(1-42) [2]; [6]): > 5000 nM

SMILES: CNc1ccc(/C=C/c2nc3cc(I)ccc3o2)cc1 [BF-180]
- Kd (Aβ(1-42) [1]; direct binding, ref 10.1523/JNEUROSCI.4456-03.2004): 10.6 nM

SMILES: CN(C)c1ncc(/C=C/c2nc3ccc(OCCF)cc3o2)s1 [BF-227]
- Kd (Aβ(1-42) [1]; direct binding, ref 10.1177/1536012118796297): 15.7 nM
- Kd (Aβ(1-42) [1]; two-site model, Site 1, ref 10.1007/s00259-012-2261-2): 1.72 nM
- Kd (Aβ(1-42) [1]; two-site model, Site 1, ref 10.1016/j.ejphar.2009.06.042): 1.31 nM
- Kd (Aβ(1-42) [1]; two-site model, Site 1, ref 10.1021/acs.molpharmaceut.8b00229): 0.82 nM
- Kd (Aβ(1-42) [1]; two-site model, Site 2, ref 10.1007/s00259-012-2261-2): 56.1 nM
- Kd (Aβ(1-42) [1]; two-site model, Site 2, ref 10.1016/j.ejphar.2009.06.042): 80 nM
- Kd (Aβ(1-42) [1]; two-site model, Site 2, ref 10.1021/acs.molpharmaceut.8b00229): 125 nM
- Ki (Aβ(1-42) [2]; [3]): 12 nM
- Ki (Aβ(1-42) [2]; against [125I]BF-180, ref 10.2967/jnumed.106.037556): 4.3 nM

SMILES: O=C(O)c1cc(/N=N/c2ccc(-c3ccc(/N=N/c4ccc(O)c(C(=O)O)c4)cc3)cc2)ccc1O [CG]
- Ki (Aβ(1-42) [2]; [7]): 0.43 nM
- Ki (Aβ(1-42) [2]; [8]): 0.4 nM

SMILES: Oc1c(I)cc(Cl)c2cccnc12 [CQ]
- Kd (Aβ(1-42) [1]; direct binding, ref 10.1016/j.bios.2017.06.030): 86 nM

SMILES: C#CCN(C)CCCOc1ccc(Cl)cc1Cl [Clorgyline]
- Ki (Aβ(1-42) [2]; [3]): > 9000 nM

SMILES: COc1cc(/C=C/C(=O)CC(=O)/C=C/c2ccc(O)c(OC)c2)ccc1O [Curcumin]
- Ki (Aβ(1-42) [2]; [7]): 3.57 nM

- ThT displacement in competition screen (Aβ(1–42) fibrils): displaced the greatest quantity of ThT
- Kd (Aβ(1–42) fibrils; [9]): 200 ± 100 nM
- Kd (Aβ(1–42) fibrils; [10]): 158 nM
SMILES: CN(CCCCc1ccccc1)C(=O)Nc1ccc2c(c1)OCC(=O)N2C [E163]

- ThT displacement in competition screen (Aβ(1–42) fibrils): displaced the greatest quantity of ThT
- Kd (Aβ(1–42) fibrils; [9]): 600 ± 300 nM
- Kd (Aβ(1–42) fibrils; [10]): 501 nM
SMILES: Cc1ccc(C)c2c(C)c(C(=O)N3CCCc4c(OCC(N)=O)cccc43)oc12 [E197]

- ThT displacement in competition screen (Aβ(1–42) fibrils): displaced the greatest quantity of ThT
- Kd (Aβ(1–42) fibrils; [9]): 20 ± 10 nM
- Kd (Aβ(1–42) fibrils; [10]): 25.1 nM
SMILES: CCOc1ccc(CCN(C)C(=O)Nc2ccc3c(c2)CCC(=O)N3C)cc1 [E363]

- ThT displacement in competition screen (Aβ(1–42) fibrils): displaced the greatest quantity of ThT
- Kd (Aβ(1–42) fibrils; [9]): 20 ± 10 nM
- Kd (Aβ(1–42) fibrils; [10]): 25.1 nM
- bound ThT displaced (Aβ(1–42) fibrils; titration into Aβ(1–42) fibrils (500 nM) and ThT (1.0 μM)): about half
SMILES: CCOc1ccccc1OCC(=O)Nc1ccc(-c2ncc3n2CCCC3)cc1 [E570]

- ThT displacement in competition screen (Aβ(1–42) fibrils): displaced the greatest quantity of ThT
- Kd (Aβ(1–42) fibrils; [9]): 56 ± 6 nM
SMILES: COc1cc(F)c(C(C)NC(=O)NCCN2c3ccccc3CC2C)cc1OC (stereo not shown) [E704]

SMILES: CC(=C(C#N)C#N)c1ccc2cc(N(C)CCF)ccc2c1 [FDDNP]
- Kd (Aβ(1-42) [1]; [11]): 5.52 nM

SMILES: CN(C)c1ccc(/N=N/c2nc3ccc(OCCOCCOCCF)cc3s2)cc1 [FPPDB]
- Ki (Aβ(1-42) [2]; against ThS, ref 10.1021/ml200230e): 20 nM

SMILES: CNc1ccc(-c2cc3cc(O)ccc3o2)c(F)n1 [Flutafuranol]
- Ki (Aβ(1-42) [2]; [3]): 42 nM

SMILES: CNc1ccc(-c2nc3ccc(O)cc3s2)cc1F [Flutemetamol]
- Ki (Aβ(1-42) [2]; [3]): 65 nM

SMILES: Cc1cc(-c2ccc(/N=N/c3ccc4c(S(=O)(=O)O)cc(S(=O)(=O)O)c(N)c4c3O)c(C)c2)ccc1/N=N/c1ccc2c(S(=O)(=O)O)cc(S(=O)(=O)O)c(N)c2c1O [Honson2b (Evan's blue), Evan's blue]
- Ki (Aβ(1-42) [2]; against ThS, ref 10.1016/j.nbd.2007.07.018): 180 nM

SMILES: CN(C)c1ccc(-c2ccc3cc(-c4nc5ccccc5s4)c(=N)oc3c2)cc1 [ICTAD-1]
- Kd (Aβ(1-42) [1]; direct binding, ref 10.1039/d0sc02060e): 3780 nM

SMILES: COc1ccc(C=Cc2ccc(C=Cc3ccc(OC)c(C(=O)O)c3)c(I)c2)cc1C(=O)O [IMSB]
- Kd (Aβ(1-42) [1]; direct binding, ref 10.1021/ja0167147): 0.73 nM
- Ki (Aβ(1-42) [2]; [8]): 0.8 nM

SMILES: Cc1c(OCC(F)(F)F)ccnc1C[S+]([O-])c1nc2ccccc2[nH]1 (stereo not shown) [LNS]
- Kd (Aβ(1-42) [1]; direct binding, ref 10.1021/cn500103u): 11 nM

SMILES: CC(C)CC1=[O+][B-](F)(F)OC(/C=C/c2ccc3cc(N(C)C)ccc3c2)=C1 [NAP-OB]
- Kd (Aβ(1-42) [1]; direct binding, ref 10.1016/j.bioactmat.2021.10.047): 0.62 nM

SMILES: CN(C)c1ccc(/C=C/c2nc3ccc(I)cc3[nH]2)cc1 [SBIM-3]
- Kd (Aβ(1-42) [1]; direct binding, ref 10.1016/j.bmc.2013.02.054): 820 nM

SMILES: COCCOCCn1c2ccccc2c2cc(/C=C/c3cc[n+](C)c4ccccc34)ccc21 [SLM]
- Kd (Aβ(1-42) [1]; direct binding, ref 10.1021/acsomega.8b00475): 11400 nM

SMILES: CN(C)c1ccc(/C=C/c2ccc3ccc(OCCF)cc3n2)cc1 [SQ3]
- Ki (Aβ(1-42) [2]; against [125I]ISQ, ref 10.1021/acsmedchemlett.2c00279): 230 nM

SMILES: Nc1ccc(-c2ccc3cc(OCCF)ccc3n2)cc1 [THK-523]
- Kd (Aβ(1-42) [1]; [11]): 30.3 nM
- Kd (Aβ(1-42) [1]; direct binding, ref 10.1093/brain/awr038): 20.7 nM

SMILES: CN(C)c1ccc(-c2ccc3cc(OCC(O)CF)ccc3n2)cc1 (stereo not shown) [THK-5105]
- Kd (Aβ(1-42) [1]; direct binding, ref 10.2967/jnumed.112.117341): 35.9 nM

SMILES: CN(C)c1ccc(-c2nc3ccc(I)cc3s2)cc1 [TZDM]
- Kd (Aβ(1-42) [1]; [12]): 0.14 nM
- Ki (Aβ(1-42) [2]; [8]): > 5000 nM

SMILES: Cc1ccc2c(c1)sc(-c1ccc(N(C)C)cc1)[n+]2C [ThT, Thioflavin T]
- Kd (Aβ(1-42) [1]; direct binding, ref 10.1002/chem.201800501): 665 nM
- Kd (Aβ(1-42) [1]; direct binding, ref 10.1016/j.bmc.2011.09.065): 2560 nM
- Kd (Aβ(1-42) [1]; direct binding, ref 10.1021/acs.analchem.2c02532): 117 nM
- Kd (Aβ(1-42) [1]; direct binding, ref 10.1021/acs.jmedchem.5b00571): 32 nM
- Kd (Aβ(1-42) [1]; direct binding, ref 10.1021/acschemneuro.6b00380): 1940 nM
- Kd (Aβ(1-42) [1]; direct binding, ref 10.1021/acschemneuro.6b00450): 430 nM
- Ki (Aβ(1-42) [2]; [8]): > 4000 nM

SMILES: CC1(C)C(/C=C/C2=C(c3ccc(CCC(=O)O)cc3)C(=C/C=C3/N(CCC[N+](C)(C)C)c4ccc(S(=O)(=O)O)cc4C3(C)C)/CCC2)=[N+](CCC[N+](C)(C)C)c2ccc(S(=O)(=O)O)cc21 [ZW800-1C]
- Kd (Aβ(1-42) [1]; direct binding, ref 10.1038/s41551-023-01003-7): 78.9 nM

SMILES: CN(C)c1ccc(-c2cc(-c3ccnc(Br)c3)[nH]n2)cc1 [[11C]MODAG-001]
- Kd (Aβ(1-42) [1]; direct binding, ref 10.1007/s00259-020-05133-x): 20 nM

SMILES: CN(C)c1ccc(/N=N/c2nc3ccc(OCCOCCOCCF)cc3s2)cc1 [[18F]FPPDB]
- Kd (Aβ(1-42) [1]; direct binding, ref 10.1021/ml200230e): 45.4 nM

SMILES: CN(C)c1ccc(C=CC(=O)c2ccc(I)cc2)cc1 [[125I]DMIC]
- Kd (Aβ(1-42) [1]; direct binding, ref 10.1016/j.bmc.2007.07.052): 4.2 nM

SMILES: COc1ccc(/C=C/c2ccc(/C=C/c3ccc(OC)c(C(=O)O)c3)c(I)c2)cc1C(=O)O [[125I]IMSB]
- Kd (Aβ(1-42) [1]; [12]): 0.73 nM

SMILES: O=[N+]([O-])c1ccc2c(c1)Sc1cc(OC/C=C/I)ccc1N2 [[125I]SIL23]
- Kd (Aβ(1-42) [1]; direct binding, ref 10.1371/journal.pone.0055031): 635 nM

SMILES: CN(C)c1ccc(-c2nc3ccc(I)cc3s2)cc1 [[125I]TZDM]
- Kd (Aβ(1-42) [1]; direct binding, ref 10.1016/j.bmc.2011.03.029): 0.45 nM
- Kd (Aβ(1-42) [1]; direct binding, ref 10.5012/bkcs.2008.29.9.1765): 0.13 nM

SMILES: O=C(O)c1cc(C=Cc2ccc(C=Cc3ccc(O)c(C(=O)O)c3)c(I)c2)ccc1O [[125]ISB]
- Kd (Aβ(1-42) [1]; [12]): 0.15 nM
